Assays:
Italian ryegrass = experiment: Test E Italian ryegrass; format: in vivo, Lolium multiflorum; conditions: Preemergence
smallflower flatsedge = experiment: Test B flood test smallflower flatsedge; format: in vivo, Cyperus difformis; conditions: for Plant response rating, S. Flatsedge: Rate 500 g/ha
Method in brief: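 Each value is a visual injury score relative to controls, with 10 meaning complete control and 0 no effect. Evaluation took place twelve to sixteen days after the 2-leaf-stage plants were treated and kept in the greenhouse.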

winter barley = experiment: Test E winter barley; format: in vivo, Hordeum vulgare; conditions: Preemergence
green foxtail = experiment: Test E green foxtail; format: in vivo, Setaria viridis; conditions: Preemergence
winter wheat [1] = experiment: Test E winter wheat; format: in vivo, Triticum aestivum; conditions: Postemergence
Method in brief: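 Greenhouse-grown plants are treated (postemergence: 1- to 4-leaf stage, sandy loam/potting mix 60:40), then evaluated visually versus untreated controls some 21 to 28 days later.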

wild oat = experiment: Test E wild oat; format: in vivo, Avena fatua; conditions: Preemergence, 0 to 100 scale where 0 is no effect and 100 is complete control
bermuda-grass = experiment: Test D bermudagrass; format: in vivo, Cynodon dactylon; conditions: Preemergence, 0 to 100 scale
Method in brief: (§1)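 Visual injury ratings, 0 = no injury to 100 = complete control, taken 14 to 21 days after treatment. Test chemicals were in a surfactant-containing non-phytotoxic solvent; preemergence treatments went onto the sandy loam surface of seeded greenhouse pots within one day of sowing.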

blackgrass [2] = experiment: Test E blackgrass; format: in vivo, Alopecurus myosuroides; conditions: Preemergence
winter wheat [3] = experiment: Test E winter wheat; format: in vivo, Triticum aestivum; conditions: Preemergence
common pursiane = experiment: Test D common purslane; format: in vivo, Portulaca oleracea; conditions: Preemergence, 0 to 100 scale
Method in brief: as §1

surinam grass = experiment: Test B pre/postemergence surinam grass; format: in vivo, Brachiaria decumbens
Method in brief: (§2)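 Response is a visual 0-to-10 score relative to untreated plants, where 0 means no effect and 10 means complete control, taken twelve to sixteen days after application. Treatments went onto soil at planting and onto foliage of 1- to 4-leaf plants, using a surfactant-containing non-phytotoxic solvent.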

bedstraw = experiment: Test B pre/postemergence bedstraw; format: in vivo, Galium aparine
Method in brief: as §2

blackgrass [4] = experiment: Test B pre/postemergence blackgrass; format: in vivo, Alopecurus myosuroides
Method in brief: as §2

[5] = Rate 500 g/ha, 0 to 100 scale where 0 is no effect and 100 is complete control
[6] = Rate 1000 g/ha, 0 to 100 scale where 0 is no effect and 100 is complete control
[7] = Pre-emergence, Rate 1000 g/ha, scale 0 to 10 (0 no effect, 10 complete control)
[8] = Rate 250 g/ha, headed Pre-emergence (flood test species), scale 0 to 10 (0 no effect, 10 complete control)
[9] = headed Pre-emergence (flood test species), scale 0 to 10 (0 no effect, 10 complete control)
[10] = Rate 2000 g/ha, Pre-emergence (as headed), scale 0 to 10
[11] = Rate 250 g/ha, 0 to 100 scale (0 no effect, 100 complete control)
[12] = Rate 1000 g/ha, 0 to 100 scale, 0 is no effect and 100 is complete control
[13] = Rate 500 g/ha, 0 to 100 scale, 0 no effect, 100 complete control
[14] = Rate 16 g/ha, 0 no injury, 100 complete control
[15] = Rate 32 g/ha, 0 no injury, 100 complete control
[16] = Rate 64 g/ha, 0 no injury, 100 complete control
[17] = Rate 125 g/ha, 0 no injury, 100 complete control
[18] = Postemergence, Rate 62 g/ha, scale 0 to 10, 0 is no effect, 10 is complete control
[19] = Postemergence, Rate 250 g/ha, scale 0 to 10, 0 no effect, 10 complete control
[20] = Preemergence, Rate 62 g/ha, scale 0 to 10 (0 no effect, 10 complete control)
[21] = Preemergence, Rate 125 g/ha, scale 0 to 10 (0 no effect, 10 complete control)
[22] = Preemergence, Rate 250 g/ha, scale of 0 to 10 where 0 is no effect and 10 is complete control
[23] = Preemergence, Rate 500 g/ha, scale 0 to 10 (0 no effect, 10 complete control)
[24] = Rate 125 g/ha, Postemergence, scale 0 to 10, 0 no effect, 10 complete control
[25] = Preemergence, Rate 62 g/ha, scale 0 to 10, 0 is no effect, 10 is complete control
[26] = Preemergence, Rate 500 g/ha, scale 0 (no effect) to 10 (complete control)
[27] = Rate 500 g/ha, Postemergence, 0 to 10 scale (0 no effect, 10 complete control)

In the case of CC(C)N(C(=O)n1oc(=O)n(Cc2cccs2)c1=O)c1ccccc1 [Compound 103], the “Plant response rating, I. Ryegrass” value (Italian ryegrass; Rate 250 g/ha, 0 to 100 scale) was 50, the “Plant response rating, I. Ryegrass” value (Italian ryegrass; [5]) was 50 and the “Plant response rating, I. Ryegrass” value (Italian ryegrass; [6]) was 70. The “S. Flatsedge plant response rating” value (smallflower flatsedge; [7]) was 0, the “S. Flatsedge plant response rating” value (smallflower flatsedge; [8]) was 0 and the “Plant response rating, S. Flatsedge” value (smallflower flatsedge; [9]) was 0. For the same compound, the “S. Flatsedge plant response rating” value (smallflower flatsedge; [10]) was 0, the “Plant response rating, Barley (winter)” value (winter barley; Rate 250 g/ha, 0 to 100 scale) was 30 and the “Plant response rating, Barley (winter)” value (winter barley; [5]) was 40. For the same compound, the “Plant response rating, Barley (winter)” value (winter barley; [6]) was 50, the “Plant response rating, Green foxtail” value (green foxtail; Rate 250 g/ha, 0 to 100 scale) was 70 and the “Plant response rating, Green foxtail” value (green foxtail; [5]) was 70. The “Plant response rating, Green foxtail” value (green foxtail; [6]) was 100, the “Plant response rating, Wheat (winter)” value (winter wheat [1]; [11]) was 0 and the “Plant response rating, Wheat (winter)” value (winter wheat [1]; [12]) was 10. For the same compound, the “Plant response rating, Wheat (winter)” value (winter wheat [1]; [13]) was 0, the “Plant response rating, Wild oat” value (wild oat; Rate 500 g/ha) was 50 and the “Plant response rating, Wild oat” value (wild oat; Rate 1000 g/ha) was 70. The “Plant response rating, Bermudagrass” value (bermuda-grass; [14]) was 30, the “Plant response rating, Bermudagrass” value (bermuda-grass; [15]) was 30 and the “Plant response rating, Bermudagrass” value (bermuda-grass; [16]) was 60. The “Plant response rating, Bermudagrass” value (bermuda-grass; [17]) was 80, the “Plant response rating, Bermudagrass” value (bermuda-grass; Rate 250 g/ha) was 100 and the “Plant response rating, Bermudagrass” value (bermuda-grass; Rate 500 g/ha) was 100. For the same compound, the “Plant response rating, Blackgrass” value (blackgrass [2]; Rate 250 g/ha, 0 to 100 scale) was 30, the “Plant response rating, Blackgrass” value (blackgrass [2]; [5]) was 50 and the “Plant response rating, Blackgrass” value (blackgrass [2]; [6]) was 70. The “Plant response rating, Wheat (winter)” value (winter wheat [3]; Rate 250 g/ha, 0 to 100 scale) was 20, the “Plant response rating, Wheat (winter)” value (winter wheat [3]; [5]) was 30 and the “Plant response rating, Wheat (winter)” value (winter wheat [3]; [6]) was 30. For the same compound, the “Plant response rating, C. purslane” value (common pursiane; [14]) was 0, the “Plant response rating, C. purslane” value (common pursiane; [15]) was 0 and the “Plant response rating, C. purslane” value (common pursiane; [16]) was 0. The “Plant response rating, C. purslane” value (common pursiane; [17]) was 0, the “Plant response rating, C. purslane” value (common pursiane; Rate 250 g/ha) was 0 and the “Plant response rating, C. purslane” value (common pursiane; Rate 500 g/ha) was 0. The “B. signalgrass plant response rating” value (surinam grass; [18]) was 0, the “B. signalgrass plant response rating” value (surinam grass; [19]) was 0 and the “B. signalgrass plant response rating” value (surinam grass; [20]) was 1. For the same compound, the “Plant response rating, B. signalgrass” value (surinam grass; [21]) was 5, the “Plant response rating, B. signalgrass” value (surinam grass; [22]) was 7 and the “B. signalgrass plant response rating” value (surinam grass; [23]) was 7. The “B. signalgrass plant response rating” value (surinam grass; [24]) was 0, the “B. signalgrass plant response rating” value (surinam grass; Rate 500 g/ha, Postemergence, scale of 0 to 10 where 0 is no effect and 10 is complete control) was 2 and the “Bedstraw plant response rating” value (bedstraw; [19]) was 0. The “Bedstraw plant response rating” value (bedstraw; [20]) was 0, the “Plant response rating, Bedstraw” value (bedstraw; [21]) was 0 and the “Plant response rating, Bedstraw” value (bedstraw; [22]) was 0. The “Bedstraw plant response rating” value (bedstraw; [23]) was 0, the “Blackgrass plant response rating” value (blackgrass [4]; Postemergence, Rate 125 g/ha, scale of 0 to 10 where 0 is no effect and 10 is complete control) was 1 and the “Blackgrass plant response rating” value (blackgrass [4]; [19]) was 4. For the same compound, the “Blackgrass plant response rating” value (blackgrass [4]; [20]) was 0, the “Plant response rating, Blackgrass” value (blackgrass [4]; [21]) was 0 and the “Plant response rating, Blackgrass” value (blackgrass [4]; [22]) was 3. The “Blackgrass plant response rating” value (blackgrass [4]; [23]) was 5, the “Blackgrass plant response rating” value (blackgrass [4]; Rate 62 g/ha, Postemergence, scale of 0 to 10 where 0 is no effect and 10 is complete control) was 0 and the “Blackgrass plant response rating” value (blackgrass [4]; Rate 500 g/ha, Postemergence, scale 0 to 10, 0 no effect, 10 complete control) was 4.

For Cc1cccc(C)c1-n1c(=O)on(C(=O)N(c2ccccc2)C(C)C)c1=O [Compound 46], the “Plant response rating, I. Ryegrass” value (Italian ryegrass; Rate 250 g/ha, 0 to 100 scale) was 50, the “Plant response rating, I. Ryegrass” value (Italian ryegrass; [5]) was 65 and the “Plant response rating, I. Ryegrass” value (Italian ryegrass; [6]) was 70. For the same compound, the “S. Flatsedge plant response rating” value (smallflower flatsedge; [18]) was 0, the “S. Flatsedge plant response rating” value (smallflower flatsedge; [7]) was 0 and the “S. Flatsedge plant response rating” value (smallflower flatsedge; Rate 125 g/ha, Postemergence section (flood test species), scale 0 to 10, 0 no effect, 10 complete control) was 0. For the same compound, the “S. Flatsedge plant response rating” value (smallflower flatsedge; [8]) was 0, the “Plant response rating, S. Flatsedge” value (smallflower flatsedge; [9]) was 0 and the “S. Flatsedge plant response rating” value (smallflower flatsedge; [10]) was 8. For the same compound, the “S. Flatsedge plant response rating” value (smallflower flatsedge; flood test, listed under Postemergence, Rate 250 g/ha, scale 0 to 10, 0 no effect, 10 complete control) was 0, the “Plant response rating, Barley (winter)” value (winter barley; Rate 250 g/ha, 0 to 100 scale) was 30 and the “Plant response rating, Barley (winter)” value (winter barley; [5]) was 40. The “Plant response rating, Barley (winter)” value (winter barley; [6]) was 50, the “Plant response rating, Green foxtail” value (green foxtail; Rate 250 g/ha, 0 to 100 scale) was 60 and the “Plant response rating, Green foxtail” value (green foxtail; [5]) was 85. The “Plant response rating, Green foxtail” value (green foxtail; [6]) was 80, the “Plant response rating, Wheat (winter)” value (winter wheat [1]; [11]) was 60 and the “Plant response rating, Wheat (winter)” value (winter wheat [1]; [12]) was 70. For the same compound, the “Plant response rating, Wheat (winter)” value (winter wheat [1]; [13]) was 70, the “Plant response rating, Wild oat” value (wild oat; Rate 500 g/ha) was 60 and the “Plant response rating, Wild oat” value (wild oat; Rate 1000 g/ha) was 70. For the same compound, the “Plant response rating, Bermudagrass” value (bermuda-grass; [14]) was 65, the “Plant response rating, Bermudagrass” value (bermuda-grass; [15]) was 85 and the “Plant response rating, Bermudagrass” value (bermuda-grass; [16]) was 98. For the same compound, the “Plant response rating, Bermudagrass” value (bermuda-grass; [17]) was 100, the “Plant response rating, Bermudagrass” value (bermuda-grass; Rate 250 g/ha) was 100 and the “Plant response rating, Bermudagrass” value (bermuda-grass; Rate 500 g/ha) was 100. The “Plant response rating, Blackgrass” value (blackgrass [2]; Rate 250 g/ha, 0 to 100 scale) was 40, the “Plant response rating, Blackgrass” value (blackgrass [2]; [5]) was 55 and the “Plant response rating, Blackgrass” value (blackgrass [2]; [6]) was 70. For the same compound, the “Plant response rating, Wheat (winter)” value (winter wheat [3]; Rate 250 g/ha, 0 to 100 scale) was 40, the “Plant response rating, Wheat (winter)” value (winter wheat [3]; [5]) was 70 and the “Plant response rating, Wheat (winter)” value (winter wheat [3]; [6]) was 50. For the same compound, the “Plant response rating, C. purslane” value (common pursiane; [14]) was 0, the “Plant response rating, C. purslane” value (common pursiane; [15]) was 0 and the “Plant response rating, C. purslane” value (common pursiane; [16]) was 0. The “Plant response rating, C. purslane” value (common pursiane; [17]) was 0, the “Plant response rating, C. purslane” value (common pursiane; Rate 250 g/ha) was 0 and the “Plant response rating, C. purslane” value (common pursiane; Rate 500 g/ha) was 0. The “B. signalgrass plant response rating” value (surinam grass; [18]) was 0, the “B. signalgrass plant response rating” value (surinam grass; [19]) was 0 and the “Plant response rating, B. signalgrass” value (surinam grass; [25]) was 0. The “Plant response rating, B. signalgrass” value (surinam grass; [21]) was 0, the “Plant response rating, B. signalgrass” value (surinam grass; [22]) was 2 and the “B. signalgrass plant response rating” value (surinam grass; [26]) was 3. The “B. signalgrass plant response rating” value (surinam grass; [24]) was 0, the “B. signalgrass plant response rating” value (surinam grass; [27]) was 0 and the “Bedstraw plant response rating” value (bedstraw; [18]) was 0. The “Plant response rating, Bedstraw” value (bedstraw; [25]) was 0, the “Plant response rating, Bedstraw” value (bedstraw; [21]) was 0 and the “Plant response rating, Bedstraw” value (bedstraw; [22]) was 0. The “Bedstraw plant response rating” value (bedstraw; [26]) was 0, the “Bedstraw plant response rating” value (bedstraw; [24]) was 0 and the “Blackgrass plant response rating” value (blackgrass [4]; [18]) was 0. The “Blackgrass plant response rating” value (blackgrass [4]; [19]) was 6, the “Plant response rating, Blackgrass” value (blackgrass [4]; [25]) was 0 and the “Plant response rating, Blackgrass” value (blackgrass [4]; [21]) was 0. For the same compound, the “Plant response rating, Blackgrass” value (blackgrass [4]; [22]) was 2, the “Blackgrass plant response rating” value (blackgrass [4]; [26]) was 7 and the “Blackgrass plant response rating” value (blackgrass [4]; [24]) was 0. For the same compound, the “Blackgrass plant response rating” value (blackgrass [4]; [27]) was 6.
